Entries after “also recorded” stand apart in the source; their conditions may differ.
What was measured:
[1] = Salt screen: XRPD of isolated solids after drying at 40° C. and at 40° C./75% RH; type: physicochemical
In short: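 Amorphous lyophilized osanetant (~20 mg) slurried with 1.05 mol eq. counterion in solvent, thermally cycled 5–40 °C at 0.1 °C/min overnight. Solids isolated by centrifugation and analysed by XRPD, then re-analysed after ~24 h drying at 40 °C and again after ~24 h at 40 °C/75% RH.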

[2] = Comparative studies: 7-day stability; type: physicochemical
[3] = Disproportionation study (stirring in water, XRPD, pH of liquor); type: physicochemical; conditions: 10 mg in 1 mL of water, 24 h at 25° C.
Procedure: After 24 h total, a white slurry was observed and was isolated by centrifugation. The solids were analyzed by XRPD. The pH of the filtered liquor was measured at 5.63. […] After 24 h total, a white slurry was observed and was isolated by centrifugation. The solids were analyzed by XRPD. The pH of the filtered liquor was measured (pH=5.09).

[4] = Long term stability: oxidation (6% H2O2) at 60° C.; type: physicochemical; conditions: 6% H2O2, 60° C., up to 14 days
Procedure: (§1) Osanetant p-toluenesulfonic acid Form 1 and osanetant benzenesulfonic acid Form 1 were tested for long-term stability across a number of different conditions, as detailed below.
(§2) Oxidation at 60° C.—Osanetant p-toluenesulfonic acid Form 1 and osanetant benzenesulfonic acid Form 1 were prepared at an osanetant content 10 times the normal working concentration then added to HPLC vials containing 6% H2O2 and stored in a darkened oven at 60° C. Samples were diluted to 2 mg/mL for analysis and were taken after T=1, 2, 4, 7, and 14 days storage. […] The purity of the resulting material is described in Table 47: […]

[5] = Solid form stability observations (scale up / polymorph work: drying, ambient conditions, aqueous media); type: physicochemical
In short: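 Osanetant sulfonic acid salt forms were crystallized by thermal cycling between 40 and 5 °C at 0.1 °C/min, held 18 h at 5 °C, filtered, washed with solvent and dried at 40 °C under vacuum for 72 h. Stability was judged by change on drying, on standing at ambient conditions after KF/oven drying, and in water or aqueous solvent mixtures.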

[6] = Long term stability: thermal stability of solids at 60° C.; type: physicochemical; conditions: solids, darkened oven at 60° C., up to 14 days
Procedure: as §1
Thermal stability of solids at 60° C.—Osanetant p-toluenesulfonic acid Form 1 and osanetant benzenesulfonic acid Form 1 were stored in a darkened oven at 60° C. in glass vials. Samples were taken after T=1, 2, 4, 7, and 14 days storage. […] The purity of the resulting material is described in Table 41: […]

[7] = Thermodynamic solubility in water and pH buffers
[8] = Hydration study (stirring in ethanol: water mixtures, XRPD); type: physicochemical
Procedure: (§3) 20 mg of osanetant p-toluenesulfonic acid Form 1 was stirred in the appropriate ethanol: water mixtures for 24 h at 25° C. Where clear solutions were observed after 1 h at 25° C., 0.5 mL of liquor was removed, and additional solid was added until a slurry was maintained. After 24 h total, the experiments were isolated by centrifugation, and the solids were analyzed by XRPD.
as §3, with “Osanetant benzenesulfonic acid” for “20 mg of osanetant p-toluenesulfonic acid”, “Form 3 (20 mg)” for “Form 1”, “was removed from the Aw 0.257 sample,” for “was removed,”

[9] = Long term stability: base (2M NaOH) at ambient temperature; type: physicochemical; conditions: 2M NaOH, dark, ambient, up to 14 days
Procedure: as §1
as §2, with “Base” for “Oxidation”, “Ambient Temperature—Osanetant” for “60° C.—Osanetant”, “2M NaOH” for “6% H2O2”, “the dark” for “a darkened oven”, “ambient laboratory conditions.” for “60° C.”, “44:” for “47:”

[10] = Long term stability: acid stability (2M HCl) at ambient temperature; type: physicochemical; conditions: 2M HCl, dark, ambient, up to 14 days
Procedure: as §1
as §2, with “Acid Stability” for “Oxidation”, “Ambient Temperature-Osanetant” for “60° C.—Osanetant”, “2M HCl” for “6% H2O2”, “the dark” for “a darkened oven”, “ambient laboratory conditions.” for “60° C.”, “42:” for “47:”

## CC(=O)N(C)C1(c2ccccc2)CCN(CCC[C@]2(c3ccc(Cl)c(Cl)c3)CCCN(C(=O)c3ccccc3)C2)CC1.Cc1ccc(S(=O)(=O)O)cc1 [osanetant p-toluenesulfonic acid Form 1, (R)-N-(1-(3-(1-benzoyl-3-(3,4-dichlorophenyl)piperidin-3-yl)propyl)-4-phenylpiperidin-4-yl)-N-methylacetamide p-toluenesulfonic acid]
[1]; after 40° C. drying, dried at 40° C./75% RH for about 24 h, label = form after 40° C. drying
  XRPD after drying at 40° C./75% RH: retained; also recorded: stable; also recorded: Form 1
[1]; isolated solids dried at 40° C. for about 24 h, label = wet form
  XRPD after drying at 40° C.: retained; also recorded: Form 1
[2]; 80° C.
  impurities on 7-day stability: increase in impurities
[2]; 7 days, elevated temperature where stated
  solid form on 7-day stability: form was retained
[2]; in slurry at various water activity and pH, and at 40° C./75% RH and 80° C.
  physical stability: physically stable
[3]
  XRPD form / disproportionation after stirring in water: no change in form; also recorded: did not disproportionate
  pH of the filtered liquor: 5.63
[4]
  degradation on storage (purity): lack of degradation
[5]; ambient conditions / room temperature and pressure
  form stability / re-hydration under ambient conditions: re-hydrated
[5]; dehydrates to Form 5
  dehydration temperature: above 85 °C
[5]; drying (40° C. under vacuum where stated)
  form on drying: stable; also recorded: no change
[6]
  degradation on storage (purity): lack of degradation
[7]
  Solubility in water and pH buffers: low
[8]; 24 h at 25° C., all mixtures tested
  XRPD form after stirring in ethanol: water mixtures: no change in form
[8]; slurry in ethanol:water 63.6:36.4 % v/v, calc Aw 0.745, 24 h at 25° C.
  XRPD: Form 1
[8]; slurry in ethanol:water 92.9:7.1 % v/v, calc Aw 0.507, 24 h at 25° C.
  XRPD: Form 1
[8]; slurry in ethanol:water 98.4:1.6 % v/v, calc Aw 0.257, 24 h at 25° C.
  XRPD: Form 1
[9]
  degradation on storage (purity): lack of degradation
[10]
  degradation on storage (purity): lack of degradation

— US20240336565A1, “SOLID FORMS OF OSANETANT” (Acer Therapeutics, Inc., priority 2021, published 2024)
